Holding throughout (format): cell-based
One assay deals with L1210 tumor cells. The assay is described as follows: Measurement of anticancer activity (L1210 growth, 2 days, trypan blue). Particulars: Mus musculus, 48 h, Table 25, L1210, 2.5×10^4 cells/ml. As to the method:
Tumor cells were grown in an RPMI 1640 medium containing of 10% fetal calf serum.
The compound was dissolved in 99.5% ethanol, adjusted before use so that the final concentration of ethanol was 0.1% or less, and added to the medium.
The control was 0.1% ethanol, and L1210 tumor cells were inoculated in the medium in a concentration of 2.5×10^4 cells/ml and grown for 2 days. The number of surviving cells were measured by trypan blue staining.

For a further assay, the system named is L1210 cancer cells. Briefly: Evaluation of antitumor activity (L1210 growth, 4 days, trypan blue). Particulars: Mus musculus, 96 h, Table 37, L1210, 1×10^5 cells/ml. The method, then:
Cancer cells were grown in an RPMI 1640 culture medium containing 10% of fetal calf serum.
The compound to be tested was dissolved in 99.5% ethanol and was added to the medium so that the final concentration of the ethanol was 0.1% or less. As a control, 0.1% ethanol was used. L1210 cancer cells were inoculated at a concentration of 1×10^5 cells/ml in the medium and were grown for 4 days. The number of live cells was determined by trypan blue staining.

Assay [1] concerns human osteoblast (KK-3, 18PDL). Briefly: Determination (2) of bone formation activity (KK-3, 14 days). To be noted: Table 39; for ALP: control 0.44 ± 0.12; for Ca: control 106 ± 12; for P: control 61 ± 10. The method, then: Human osteoblast (KK-3, 18PDL) was cultured in α-MEM containing 10% fetal bovine serum, and when a stable growth was attained, a predetermined concentration of the compound was added in the presence of 2 mM α-glycerophosphoric acid salt, followed by treatment for 14 days. The cell layer was washed with physiological salt solution and the alkali phosphatase activity then measured by absorption at OD415. Then, calcium and phosphorus were extracted with a 2N hydrochloric acid solution and quantitated.

The subject of assay [2] is human osteoblast (KK-3, 18PDL). Briefly: Determination (3) of bone formation activity (KK-3, 14 days). Particulars: Table 40; for ALP: control 0.72 ± 0.17; for P: control 51 ± 5; for Ca: control 90 ± 8. The method, then: Human osteoblast (KK-3, 18PDL) was cultured in α-MEM containing 10% fetal bovine serum, and when a stable growth was attained, a predetermined concentration of the compound was added in the presence of 2 mM α-glycerophosphoric acid salt, followed by treatment for 14 days. The cell layer was washed with a physioligical salt solution and the alkali phosphatase activity then measured by absorption at OD415. Next, calcium and phosphorus were extracted with a 2N hydrochloric acid solution and quantitated.

The subject of assay [3] is human osteoblasts (KK-3, 18PDL). The assay is described as follows: Measurement of bone formation activity (KK-3, 14 days). As to the method: Human osteoblasts (KK-3, 18PDL) were cultured in an α-MEM containing 10% fetal calf serum. After the growth became stationary, the compound was added in a given concentration in the presence of 2 mM α-glycerophosphate and treated for 14 days. The cell phase was washed with physiological saline, and the alkaline phosphatase activity (ALP) was measured through the absorption of OD415. Then, calcium (Ca) and phosphorus (P) were extracted with a 2N hydrochloric acid and quantitatively determined.

≈ marks a conversion by molar mass, not a printed value.

These results are taken from patent US5216183A, “Cyclopentanone/cyclopentenone derivative” (Teijin Limited, priority 1988, dated 1993).

In the case of `CSC1=CC(CCCCOc2ccccc2)C(=CC=CC(O)CCCO)C1=O` (stereo not drawn), inhibition in the assay on L1210 tumor cells was half-maximal at 1.9 µg/mL (≈ 4.72 µM) (IC50).

Turning to `CCCCCC(O)C=CC1C=C([S+](C)[O-])C(=O)C1=CCCCCCC(=O)OC` (stereo not drawn) [2-methylsulfinyl-5-(6-methoxycarbonyl-hexylidene)-4-(3-hydroxy-1-octenyl)-2-cyclopentenone], in the assay on L1210 cancer cells, the IC50 (commonly the concentration at which inhibition is half-maximal) is 4 µg/mL (≈ 9.74 µM).

In turn, `C[S+]([O-])C1=CC(O)(CCCCOc2ccccc2)/C(=C\C=C\C(O)CCCO)C1=O` (stereo not drawn) [2-methylsulfinyl-5-[( -- E)-4,7-dihydroxy-2-heptenylidene]-4-(4-phenoxybutyl)-4-hydroxy-2-cyclopentenone] returned an IC50 in the assay on L1210 cancer cells of 1 µg/mL (≈ 2.3 µM).

In turn, `C[S+]([O-])C1=CC(=CCCCOc2ccccc2)/C(=C/C=C/C(O)CCCO)C1=O` (stereo not drawn) [2-methylsulfinyl-5-[( -- Z)-4,7-dihydroxy-2-heptenylidene]-4-(4-phenoxybutylidene)-2-cyclopentenone] showed an IC50 in the assay with L1210 cancer cells of 0.1 µg/mL (≈ 0.24 µM).

`CS(=O)(=O)C1=CC(O)(CCCCOc2ccccc2)/C(=C\C=C\C(O)CCCO)C1=O` (stereo not drawn) [2-methylsulfonyl-5-[( -- E)-4,7-dihydroxy-2-heptenylidene]-4-(4-phenoxybutyl)-4-hydroxy-2-cyclopentenone] came in with an IC50 in the assay with L1210 cancer cells of 2 µg/mL (≈ 4.44 µM).

In assay [1] (10^-6 M), `CSC1=CC(O)(CCCCOc2ccccc2)/C(=C\C=C\C(O)CCCO)C1=O` (stereo not drawn) [2-methylthio-5-[( -- E)-4,7-dihydroxy-2-heptenylidene]-4-(4-phenoxybutyl)-4-hydroxy-2-cyclopentenone] yielded an ALP of 0.97 OD 415 nm/dish and a Ca of 168 μg/dish. For the same molecule, in assay [1] (10^-7 M), the ALP turned out to be 0.56 ± 0.08 OD 415 nm/dish, the P is 64 ± 3 μg/dish and the Ca is 114 ± 4 μg/dish. In assay [1] (10^-8 M), this molecule yielded an ALP of 0.24 ± 0.02 OD 415 nm/dish, a P of 47 ± 2 μg/dish and a Ca of 87 ± 6 μg/dish.

For `CSC1=CC(=CCCCOc2ccccc2)C(=C/C=C\C(O)CCCO)C1=O` (stereo not drawn) [2-methylthio-5-[( -- Z)-4,7-dihydroxy-2-heptenylidene]-4-(4-phenoxybutylidene)-2-cyclopentenone], in assay [2] (10^-6 M), the ALP is listed as 0.94 ± 0.11 OD 415 nm/dish, the P amounted to 60 ± 0.5 μg/dish and the Ca was 109 μg/dish. For the same molecule, in assay [2] (10^-7 M), the ALP is 0.94 ± 0.07 OD 415 nm/dish, the P is 48 ± 4 μg/dish and the Ca turned out to be 85 ± 10 μg/dish.

Regarding `O=C1C(SC2CCCCC2)=CC(O)(CCCCOc2ccccc2)C1=CC=CC(O)CCCO` (stereo not drawn) [drawing 1059], in the assay with L1210 tumor cells, it took 0.78 µg/mL (≈ 1.6 µM) to reach half-maximal inhibition (IC50).

The molecule `COC(=O)COc1cccc(C=C2C(=O)C(SC)=CC2(O)CCCCOc2ccccc2)c1` (stereo not drawn) [drawing 1060] gave an IC50 in the assay on L1210 tumor cells of 0.83 µg/mL (≈ 1.77 µM).

With `CCOc1ccc2nc(SC3=CC(O)(CCCCOc4ccccc4)C(=CC=CC(O)CCCO)C3=O)sc2c1` (stereo not drawn) [drawing 1061], the IC50 in the assay on L1210 tumor cells came to 0.02 µg/mL (≈ 0.0344 µM).

In the assay on L1210 tumor cells, `Cn1ccnc1SC1=CC(O)(CCCCOc2ccccc2)C(=CC=CC(O)CCCO)C1=O` (stereo not drawn) [drawing 1062] returned a half-maximal inhibitory concentration (IC50) of 0.15 µg/mL (≈ 0.31 µM).

Regarding `CCCCC1=C(Sc2nccn2C)C(=O)C(=CC=CC(O)CCCO)C1(O)CCCCOc1ccccc1` (stereo not drawn) [drawing 1063], in the assay on L1210 tumor cells, half-maximal inhibition (IC50) was put at 2.3 µg/mL (≈ 4.25 µM).

The molecule `CSC1=CC(O)C(=CC=CC(O)CCCO)C1=O` (stereo not drawn) [drawing 1064] returned an IC50 in the assay with L1210 tumor cells of 0.1 µg/mL (≈ 0.37 µM).

Turning to `Cn1ccnc1SC1=CC(O)(CCCCOc2ccccc2)C(C(O)C=CC(O)CCCO)C1=O` (stereo not drawn) [drawing 1066], in the assay on L1210 tumor cells, the IC50 came to 0.32 µg/mL (≈ 0.637 µM).

As for `COC(=O)COc1cccc(C=C2C(=O)C(SC)=CC2(O)CCCCOc2ccccc2)c1` (stereo not drawn) [drawing 1073], the ALP in assay [3] (Table 29, 10^-7 M, control 0.77 ± 0.20) is 0.52 ± 0.10 OD413 /dish; in assay [3] (Table 29, 10^-8 M, control 0.77 ± 0.20) it was 0.64 OD413 /dish. This molecule displayed a P in assay [3] (Table 29, 10^-7 M, control 18.64 ± 3.16) of 21.72 ± 8.88 μg/dish. For the same molecule, the Ca in assay [3] (Table 29, 10^-7 M, control 31.26 ± 3.00) came out at 36.18 ± 14.29 μg/dish; in assay [3] (Table 29, 10^-8 M, control 31.26 ± 3.00) it was 49.16 ± 26.04 μg/dish.

As for `CCCCC1=C(Sc2nccn2C)C(=O)C(=CC=CC(O)CCCO)C1(O)CCCCOc1ccccc1` (stereo not drawn) [drawing 1079], the ALP is on record as 0.12 ± 0.01 OD415 /dish in assay [3] (Table 31, 10^-7 M, control 0.18 ± 0.06) and 0.17 OD415 /dish in assay [3] (Table 31, 10^-8 M, control 0.18 ± 0.06). The Ca in assay [3] (Table 31, 10^-7 M, control 1.88 ± 0.31) is on record as 4.85 ± 0.84 μg/dish; in assay [3] (Table 31, 10^-8 M, control 1.88 ± 0.31) it was 2.46 μg/dish. This molecule gave a P in assay [3] (Table 31, 10^-7 M, control 4.73 ± 0.37) of 6.68 ± 0.34 μg/dish.

Turning to `CSC1=CC(O)C(=CC=CC(O)CCCO)C1=O` (stereo not drawn) [drawing 1082], the ALP in assay [3] (Table 32, 10^-5 M, control 0.80 ± 0.01) is 0.53 OD415 /dish; in assay [3] (Table 32, 10^-6 M, control 0.80 ± 0.01), 0.81 ± 0.06 OD415 /dish. In addition, the Ca is listed as 57.33 ± 2.08 μg/dish in assay [3] (Table 32, 10^-5 M, control 23.00 ± 1.00) and 23.00 ± 3.46 μg/dish in assay [3] (Table 32, 10^-6 M, control 23.00 ± 1.00). This molecule also registered a P in assay [3] (Table 32, 10^-6 M, control 15.67 ± 0.58) of 16.33 ± 2.08 μg/dish.

Molecule `CCCCCC(O)C=CC1C=C(SC)C(=O)C1=CCCCCCC(=O)OC` (stereo not drawn) [drawing 1097, 2-methylthio-5-(6-methoxycarbonyl-hexylidene)-4-(3-hydroxy-1-octenyl)-2-cyclopentenone] yielded an IC50 in the assay with L1210 cancer cells of 5 µg/mL (≈ 12.7 µM).

For the molecule `CSC1=CC(O)(CCCCOc2ccccc2)/C(=C/C=C/C(O)CCCO)C1=O` (stereo not drawn) [drawing 1101, 2-methylthio-5-[( -- Z)-4,7-dihydroxy-2-eptenylidene]-4-(4-phenoxybutyl)-4-hydroxy-2-cyclopentenone], in the assay on L1210 cancer cells, half-maximal inhibition (IC50) was put at 1.2 µg/mL (≈ 2.87 µM).

As for `CSC1=CC(O)(CCCCOc2ccccc2)/C(=C/C=C/C(O)CCCO)C1=O` (stereo not drawn) [drawing 1106, 2-methylthio-5-[( -- Z)-4,7-dihydroxy-2-heptenylidene]-4-(4-phenoxybutyl)-4-hydroxy-2-cyclopentenone], the ALP in assay [1] (10^-6 M) is 1.12 OD 415 nm/dish; in assay [1] (10^-7 M) it was 0.48 ± 0.08 OD 415 nm/dish; in assay [1] (10^-8 M) it was 0.28 ± 0.06 OD 415 nm/dish. Also, the Ca in assay [1] (10^-6 M) stood at 168 μg/dish; in assay [1] (10^-7 M), 111 ± 9 μg/dish; in assay [1] (10^-8 M) it was 84 ± 10 μg/dish. Also, the results for the P in assay [1] (10^-7 M) and in assay [1] (10^-8 M) were 63 ± 6 μg/dish and 47 ± 6 μg/dish, respectively.

In assay [2] (10^-6 M), `CSC1=CC(=CCCCOc2ccccc2)/C(=C/C=C/C(O)CCCO)C1=O` (stereo not drawn) [drawing 1108, 2-methylthio-5-[( -- Z)-4,7-dihydroxy-2-heptenylidene]-4-(4-phenoxybutylidene)-2-cyclopentenone] came in with an ALP of 0.75 ± 0.17 OD 415 nm/dish, a P of 57 ± 1 μg/dish and a Ca of 105 μg/dish. In assay [2] (10^-7 M), this molecule came in with an ALP of 0.69 ± 0.02 OD 415 nm/dish, a P of 60 ± 14 μg/dish and a Ca of 110 ± 30 μg/dish.

On to `C[S+]([O-])C1=CC(O)(CCCCOc2ccccc2)/C(=C/C=C/C(O)CCCO)C1=O` (stereo not drawn) [drawing 1109, 2-methylsulfinyl-5-[( -- Z)-4,7-dihydroxy-2-heptenylidene]-4-(4-phenoxybutylidene)-4-hydroxy-2-cyclopentenone], for which, in assay [2] (10^-6 M), the ALP amounted to 0.92 ± 0.9 OD 415 nm/dish, the P is given as 61 ± 4 μg/dish and the Ca is recorded as 109 μg/dish. In assay [2] (10^-7 M), this molecule yielded an ALP of 0.81 ± 0.11 OD 415 nm/dish, a P of 52 ± 1 μg/dish and a Ca of 89 ± 1 μg/dish.

In assay [2] (10^-6 M), `CCCCCC(O)C=CC1C=C(SC)C(=O)C1=CCCCCCC(=O)OC` (stereo not drawn) [drawing 1111, 2-methylthio-5-(6-methoxy-carbonylhexylidene)-4-(3-hydroxy-1-octenyl)-2-cyclo-pentenone] came in with an ALP of 0.68 ± 0.10 OD 415 nm/dish, a P of 43 ± 4 μg/dish and a Ca of 79 μg/dish. In addition, in assay [2] (10^-7 M), the ALP is reported as 0.73 ± 0.02 OD 415 nm/dish, the P is given as 46 ± 2 μg/dish and the Ca is 78 ± 4 μg/dish.
